{"source": "patent US11737458B2", "about": "“Fibrous substrate for capture of gram negative bacteria” (Kimberly-Clark Worldwide, Inc., priority 2015, dated 2023)", "origin": "cited, not measured here"}
{"smiles": "C=CC(=O)O", "note": "[acrylic acid]", "values": [{"measurement": "pKa value", "value": "about 4.3"}]}
